Measured values published in US8618068B2, “Methods and low dose regimens for treating red blood cell disorders” (priority 2009, dated 2013).
Marks after values point to notes of the source that are not given here.

How the values were obtained:
[1] = test system: γ-globin mRNA; assay: γ-globin mRNA in anemic baboons given HU and DMB; format: in vivo; details: HU 3 days/week
[2] = test system: fetal globin; details: cited from earlier work
[3] = test system: β- and γ-globin gene promoters; assay: Double-luciferase reporter assay of γ-globin expression in GM979 cells; format: cell-based, murine
From the text: DMB was compared to arginine butyrate (AB) for its ability to induce y-globin expression in a double-luciferase reporter assay in murine erythroleukemia (GM979) cells transfected with the pLCR linked to the β- and γ-globin gene promoters linked to a different luciferase gene.

[4] = test system: micronucleated erythrocytes (PCEs); details: cited from earlier work
[5] = test system: F-cells; assay: F-cells in Bfu-e erythroid progenitor cultures; format: cell-based

NC(=O)NO [HU, hydroxyurea]
γ-globin mRNA increase above baseline [1]: 80-120% | patients in whom clinical benefit is observed ([2]; SCD patients): 40-50% | treatment required for optimal effects on HbF ([2]; at a level close to the maximum tolerated dose): 6-9 months

Arginine butyrate [reference compound]
Mean Fold Increase ([3]; 0.5 mM, compared to untreated controls, p ≦ 0.01): 1.8* | γ/(γ + β) globin Expression, Range ([3]; Active Concentration 0.5 mM): 0.029-0.047

O=P1(N(CCCl)CCCl)NCCCO1 (stereo not shown) [cyclophosphamide]
historical positive control values, mean±SD [4]: 19.2±15.5 MN PCEs/1,000 PCEs

Nc1ncn([C@H]2C[C@H](O)[C@@H](CO)O2)c(=O)n1 [decitabine, 5-aza-2′-deoxycytidine, reference compound]
F-cells increase above F-cell levels in control cultures [5]: 66-104%
